pIC50: −log10 of the molar value. Read-outs that look alike come from different tables or passages of the source.

The target in one test is T1, MMP-13 (Homo sapiens, UniProt P45452).
T1 construct: made in house
As to the kind of experiment: In-vitro fluorescence assay of MMP-13 activity. It counts as biochemical.

Another test has as its target T2, Aggrecanase-1 (Homo sapiens, UniProt O75173).
T2 sequence (O75173 213-837): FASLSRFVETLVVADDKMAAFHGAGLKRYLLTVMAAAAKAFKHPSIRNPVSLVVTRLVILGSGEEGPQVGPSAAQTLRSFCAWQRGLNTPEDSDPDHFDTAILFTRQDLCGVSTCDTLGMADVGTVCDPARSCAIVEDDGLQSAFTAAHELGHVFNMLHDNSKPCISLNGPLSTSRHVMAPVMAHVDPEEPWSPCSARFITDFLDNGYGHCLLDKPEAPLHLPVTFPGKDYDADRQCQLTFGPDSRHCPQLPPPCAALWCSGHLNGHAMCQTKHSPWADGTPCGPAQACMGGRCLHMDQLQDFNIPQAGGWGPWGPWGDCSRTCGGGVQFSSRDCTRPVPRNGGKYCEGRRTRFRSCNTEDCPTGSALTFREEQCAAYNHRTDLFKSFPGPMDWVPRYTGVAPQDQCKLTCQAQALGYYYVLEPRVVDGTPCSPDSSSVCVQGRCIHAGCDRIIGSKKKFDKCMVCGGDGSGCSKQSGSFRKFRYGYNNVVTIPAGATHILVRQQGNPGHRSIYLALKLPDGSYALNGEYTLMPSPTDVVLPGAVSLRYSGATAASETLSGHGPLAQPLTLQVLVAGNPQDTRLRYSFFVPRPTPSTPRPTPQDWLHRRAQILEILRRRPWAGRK
As to the kind of experiment: Aggrecanase-1 FRET assay. It counts as biochemical. The conditions noted are these: for pIC50: rAgg1, WAAG-3R substrate, read-out: AGG-1 IC50. How it is done:
h. Aggrecanase-1 FRET Assay:
The following protocol was used: • Fluorimeter was started and temperature set to 30° C., about 30 min before setting up the assay. The following reagents are used: • Buffer: 50 mM HEPES, pH 7.5, 100 mM NaCl, 5 mM CaCl2, 0.1% CHAPS, 5% glycerol. • rAgg1: 5 μg/ml (final concentration in the assay): • Substrate: WAAG-3R (MWT=1645.8, Anaspec, stored at 4° C.). Make a stock at 2 mg/ml in 100% DMSO. Measure the absorbance at 354 nm (ε=18172 M^−1 cm^−1) to determine the exact concentration. Dilute to 62.5 μM in buffer. Store unused 100% DMSO stock at −80° C. Final concentration of substrate in the assay is 25 μM. […] Make up inhibitors at 10× starting concentration in 100% DMSO. Perform serial dilutions (in duplicate) across the nunc plate in 100% DMSO; • Dilution plates: Nunc, polypropylene low binding (Nalgene) • Assay plate: Fluoronunc (Nalgene) • Fluorimeter: GeminiXS (Molecular Devices).; • The assay is performed as follows: The plates are set up so that the final column (12) is used for controls. Total reaction volume is 100 μl. Each compound is assayed in duplicate, so 4 compounds are screened per plate. • 1) Add buffer to the entire 96-well plate (30 ρl/well). • 2) Dilute rAgg1 to 25 μg/ml buffer just prior to addition on the plate. Add 20 μl/well to all wells. Mix 6 times. • 3) Add 10 μl/well of 10× inhibitors from the working plate, except column 12. Mix 6 times. […] Mix 6 times.
The reaction is monitored for 30-40 min at 30° C. λex: 340 nm and λ em: 420 nm). The fluorescence is linear during this time and the slope of the line (Vmax/sec) represents the initial reaction rate, ν. The maximal rate of cleavage of substrate is determined in the absence of inhibitor. The percent inhibition of activity in the presence of inhibitor is calculated as follows:
[formula] The IC50 was obtained by fitting the initial rate, ν, or % inhibition at each concentration of inhibitor to the following equation in Excel. y=(a−d)/(1+C/IC50)^n)+d This model describes a sigmoidal curve with an adjustable baseline, […]. y is the % inhibition or initial rate of reaction, C is the concentration of inhibitor under test. a is the limiting response as C approaches zero. […] The sign of n is positive when the response increases with increasing dose and is negative when the response decreases with increasing dose (inhibition).

In the next test the target is T3, MMP-2 (Homo sapiens, UniProt P08253).
T3 construct: purchased Oncogene Research Products (Calbiochem) PF023
T3 sequence (P08253 110-660): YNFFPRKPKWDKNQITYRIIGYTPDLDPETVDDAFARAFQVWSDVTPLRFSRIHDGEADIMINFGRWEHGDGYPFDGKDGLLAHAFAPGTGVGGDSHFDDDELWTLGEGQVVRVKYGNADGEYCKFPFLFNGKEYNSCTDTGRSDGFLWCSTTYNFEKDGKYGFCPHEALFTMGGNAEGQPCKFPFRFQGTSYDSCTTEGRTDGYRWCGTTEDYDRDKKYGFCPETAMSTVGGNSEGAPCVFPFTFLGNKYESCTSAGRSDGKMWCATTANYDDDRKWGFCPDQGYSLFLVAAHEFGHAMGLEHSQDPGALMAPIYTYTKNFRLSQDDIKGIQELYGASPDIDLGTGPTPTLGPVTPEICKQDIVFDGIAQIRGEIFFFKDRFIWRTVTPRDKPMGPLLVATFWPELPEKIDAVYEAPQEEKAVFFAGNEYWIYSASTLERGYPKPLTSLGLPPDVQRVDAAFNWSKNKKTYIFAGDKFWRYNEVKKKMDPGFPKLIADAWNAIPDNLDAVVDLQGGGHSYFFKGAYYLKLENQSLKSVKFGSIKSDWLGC
Kind of test: In-vitro fluorescence assay of MMP-2 activity. Format: biochemical.

Another test concerns the target T4, MMP-12 (Homo sapiens, UniProt P39900).
T4 construct: made in house
Kind of test: In vitro fluorescence assay of MMP-12 activity. Format: biochemical. The conditions noted are these: recombinant human MMP-12.

A further test has as its target T5, MMP-14 (Homo sapiens, UniProt P50281).
T5 construct: 20 kDa; purchased Chemicon International, Inc. CC 1041
As to the kind of experiment: In-vitro fluorescence assay of MMP-14 activity. Format: biochemical.

For another test, the target named is T6, MMP-1 (Homo sapiens, UniProt P03956).
T6 sequence (P03956 100-269 limits assumed): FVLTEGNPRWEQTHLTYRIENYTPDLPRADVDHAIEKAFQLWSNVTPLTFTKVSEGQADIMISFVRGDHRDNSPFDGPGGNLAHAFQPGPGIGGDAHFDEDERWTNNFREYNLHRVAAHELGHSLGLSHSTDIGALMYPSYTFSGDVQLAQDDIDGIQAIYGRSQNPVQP

Setting [1] is: recombinant human catalytic domain of MMP-13, read-out: MMP-13 IC50.
[2] abbreviates: recombinant human MMP-2, read-out: MMP-2 IC50.
[3] abbreviates: MMP-13 IC50, recombinant human catalytic domain of MMP-13.
[4] abbreviates: recombinant human catalytic domain of MMP-14.

T4 sequence (P39900 106-280 limits assumed): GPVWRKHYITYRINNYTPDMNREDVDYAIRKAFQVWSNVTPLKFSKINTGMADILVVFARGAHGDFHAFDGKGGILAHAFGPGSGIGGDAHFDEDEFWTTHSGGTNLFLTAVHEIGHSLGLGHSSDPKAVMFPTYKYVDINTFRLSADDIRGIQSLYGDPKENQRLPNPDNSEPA
Procedure for MMP-12: A continuous, assay was used in which the substrate is a synthetic peptide containing a fluorescent group (7-methoxycoumarin; Mca) which is quenched by energy transfer to a 2,4-dinitrophenyl group. […] The concentration of the substrate stock was spectrophotometrically determined using the extinction coefficient at 410 nm of 7500 M^−1cm^−1. The assay buffer (pH 7.4) consisted of 50 mM Hepes, 100 mM NaCl, 5 mM CaCl2, and 0.005% Brij-35. […] The plates were then incubated at room temperature for 30 minutes. The enzymatic reactions were initiated by adding substrate to a final concentration of 20 μM and they were mixed by pipetting up and down. The final DMSO concentration in the assay was 10% and the final, total assay volume was 200 μl.
Procedure for MMP-13: A continuous assay was used in which the substrate is a synthetic peptide containing a fluorescent group (7-methoxycoumarin; Mca) which is quenched by energy transfer to a 2,4-dinitrophenyl group. […] The substrate used was Mca-PQGL-(3-[2,4-dinitrophenyl]-L-2,3-diaminopropionyl)-AR-OH (denoted as Wammp-5, custom synthesized by AnaSpec, Inc.). The assay buffer consisted of 50 mM Hepes (pH 7.4), 100 mM NaCl, 5 mM CaCl2, and 0.005% Brij-35. Each well of black polystyrene 96-well plates contained a 200 μL reaction mixture consisting of assay buffer, purified MMP (final concentration of 0.5 nM, prepared by diluting with the assay buffer), and varied concentrations of inhibitor (prepared by serially diluting a given inhibitor in DMSO in 96-well polypropylene plate). […] The enzymatic reactions were initiated by adding the substrate to a final concentration of 20 μM, and mixing 10 times with a pipette. The final DMSO concentration in the assay was 6.0%.
(§1) Plots of the inhibitor concentration vs. the percent inhibition were fit to the following equation: y=(a−d)/[1+(x/c)^b]+d, a general sigmoidal curve with Hill slope, a to d. x is the inhibitor concentration under test. y is the percent inhibition. a is the limiting response as x approaches zero. As x increases without bound, y tends toward its limit d. c is the inflection point (IC50) for the curve. That is, y is halfway between the lower and upper asymptotes when x=c. b is the slope factor or Hill coefficient.
Procedure for MMP-14: A continuous assay was used in which the substrate is a synthetic peptide containing a fluorescent group (7-methoxycoumarin; Mca) which is quenched by energy transfer to a 2,4-dinitrophenyl group. […] The substrate used was Mca-PQGL-(3-[2,4-dinitrophenyl]-L-2,3-diaminopropionyl)-AR-OH (denoted as Wammp-5, custom synthesized by AnaSpec, Inc.). The assay buffer consisted of 50 mM Hepes (pH 7.4), 100 mM NaCl, 5 mM CaCl2, and 0.005% Brij-35. […] The enzymatic reactions were initiated by adding the substrate to a final concentration of 20 μM, and mixing 10 times with a pipette. The final DMSO concentration in the assay was 6.0%.
as §1

By pIC50 is commonly meant the negative decadic logarithm of the IC50, by convention in mol/L. Turning to `CC(C)C(NS(=O)(=O)c1ccc(-c2ccc(NS(=O)(=O)c3cccs3)cc2)cc1)C(=O)O` (stereo in doubt) [Example 171, (R)-3-Methyl-2-[4′-(thiophene-2-sulfonylamino)-biphenyl-4-sulfonylamino]-butyric acid], the pIC50 on MMP-13 (setting [1]) was 5.96. Moreover, the inhibition at 150 µM at Aggrecanase-1 (read-out: AGG-1 % inhibition at a concentration) was found to be 60%.
Turning to `Cc1c(C(=O)Nc2ccc(-c3ccc(S(=O)(=O)N[C@H](C(=O)O)C(C)C)cc3)cc2)oc2cccc(Oc3ccccc3)c12` [Example 155, L-3-Methyl-2-{4′-[(3-methyl-4-phenoxy-benzofuran-2-carbonyl)-amino]-biphenyl-4-sulfonylamino}-butyric acid], the pIC50 at MMP-2 (setting [2]) is 5.30; at MMP-12, 6.29; on MMP-13 (setting [3]), 7.72; at MMP-14 (setting [4]), 5.10; against MMP-1, 4.60.
As to `CC(C)[C@@H](NS(=O)(=O)c1ccc(-c2ccc(OC(=O)c3ccco3)cc2)cc1)C(=O)O` [Example 144, N-{[4′-(2-Furoyloxy)-1,1′-biphenyl-4-yl]sulfonyl}-D-valine], the negative-log IC50 (pIC50) on Aggrecanase-1 is 4.94.
`COc1c(Cl)ccc2oc(C(=O)Nc3ccc(-c4ccc(S(=O)(=O)N[C@H](C(=O)O)C(C)C)cc4)cc3)c(C)c12` [Example 116, (S)-2-{4′-[(5-Chloro-4-methoxy-3-methyl-benzofuran-2-carbonyl)-amino]-biphenyl-4-sulfonylamino}-3-methyl-butyric acid]: the pIC50 was 5.83 at MMP-2 (setting [2]); 7.30 at MMP-12; 8.72 on MMP-13 (setting [1]); 4.91 at MMP-14 (setting [4]); 4.47 on MMP-1 (read-out: MMP-1 IC50, recombinant human catalytic domain of MMP-1).
With `Cc1c(C(=O)Nc2ccc(-c3ccc(S(=O)(=O)N[C@H](C(=O)O)C(C)C)cc3)cc2)oc2cccc(-c3cccnc3)c12` [Example 111, (S)-3-methyl-2-{4′-[(3-methyl-4-pyridin-3-yl-benzofuran-2-carbonyl)-amino]-biphenyl-4-sulfonylamino}-butyric acid], the pIC50 at MMP-2 (setting [2]) is 5.87; on MMP-12, 7.08; at MMP-13 (setting [1]), 8.40; at MMP-14 (setting [4]), 5.14; against MMP-1 it was 4.66.
In the case of `CC(C)[C@@H](NS(=O)(=O)c1ccc(-c2ccc(NC(=O)c3cccs3)cc2)cc1)C(=O)O` [Example 173, (R)-3-Methyl-2-{4′-[(thiophene-2-carbonyl)-amino]-biphenyl-4-sulfonylamino}-butyric acid], the negative-log IC50 (pIC50) on MMP-13 (setting [1]) was 6.94; at Aggrecanase-1, 4.60.
Take `CC(C)[C@@H](NS(=O)(=O)c1ccc(-c2ccc(OC(=O)c3ccoc3)cc2)cc1)C(=O)O` [Example 145, N-{[4′-(3-Furoyloxy)-1,1′-biphenyl-4-yl]sulfonyl}-D-valine]: the pIC50 at Aggrecanase-1 was 5.07.
`COc1c(Br)ccc2oc(COc3ccc(-c4ccc(S(=O)(=O)N[C@H](C(=O)O)C(C)C)cc4)cc3)c(C)c12` [Example 148, N-({4′-[(5-Bromo-4-methoxy-3-methyl-1-benzofuran-2-yl)methoxy]-1,1′-biphenyl-4-yl}sulfonyl)-L-valine]: the negative-log IC50 (pIC50) against MMP-2 is 6.87; at MMP-13 (setting [3]) it was 8.85; at Aggrecanase-1 it was 6.40.
For `Cc1c(C(=O)Nc2ccc(-c3ccc(S(=O)(=O)N[C@H](C(=O)O)C(C)C)cc3)cc2)oc2cccc(C#N)c12` [Example 20, L-2-{4′-[(4-Cyano-3-methyl-benzofuran-2-carbonyl)-amino]-biphenyl-4-sulfonylamino}-3-methyl-butyric acid], the negative logarithm of the IC50 (pIC50) on MMP-2 (setting [2]) was 6.24; at MMP-12 it was 7.48; on MMP-13 (setting [1]), 8.43; against MMP-14, 5.26; against MMP-1, 4.62.
Take `CC(C)[C@H](NS(=O)(=O)c1ccc(-c2ccc(NC(=O)c3cc4c(-c5ccccc5)nn(C)c4s3)cc2)cc1)C(=O)O` [Example 167, (S)-3-Methyl-2-{4′-[(1-methyl-3-phenyl-1H-thieno[2,3-c]pyrazole-5-carbonyl)-amino]-biphenyl-4-sulfonylamino}-butyric acid]: the pIC50 on MMP-2 (setting [2]) was 5.03; at MMP-12, 7.01; at MMP-13 (setting [1]), 7.92; on MMP-14 (setting [4]) it was 4.96; against MMP-1, 4.05.
With `CC(C)[C@H](NS(=O)(=O)c1ccc(-c2ccc(NC(=O)c3nc4ccccc4s3)cc2)cc1)C(=O)O` [Example 151, L-2-{4′-[(Benzothiazole-2-carbonyl)-amino]-biphenyl-4-sulfonylamino}-3-methyl-butyric acid], the pIC50 was 7.96 at MMP-12, 9.40 on MMP-13 (setting [1]), 4.46 on MMP-14 (setting [4]) and 4.15 at MMP-1.
`Cc1c(C(=O)Nc2ccc(-c3ccc(S(=O)(=O)N[C@H](C(=O)O)C(C)C)cc3)cc2)oc2cccc(C(N)=O)c12` [Example 46, L-2-{4′-[(4-Carbamoyl-3-methyl-benzofuran-2-carbonyl)-amino]-biphenyl-4-sulfonylamino}-3-methyl-butyric acid]: the pIC50 is 6.00 on MMP-2 (setting [2]); 6.73 at MMP-12; 7.85 on MMP-13 (setting [1]); 4.61 at MMP-14 (setting [4]); 4.69 against MMP-1.
Regarding `CC(C)[C@@H](NS(=O)(=O)c1ccc(-c2ccc(N(C)C(=O)c3cc4ccccc4o3)cc2)cc1)C(=O)O` [Example 75, D-2-{4′-[(Benzofuran-2-carbonyl)-methyl-amino]-biphenyl-4-sulfonylamino}-3-methyl-butyric acid], the negative logarithm of the IC50 (pIC50) at Aggrecanase-1 is 4.38.

Values taken from patent publication US7420001B2 (Wyeth, priority 2003, dated 2008).
